{
  "source": "patent US7015250B2",
  "about": "“Methods and pharmaceutical preparations for normalizing blood pressure with (-)-hydroxycitric acid” (Glykon Technologies Group, LLC, priority 2000, dated 2006)",
  "key": {"[1]": {"test": "pilot open clinical weight loss trial with a pouch delivery form of potassium (−)-hydroxycitrate in extremely obese patients (blood pressure, weight, tolerability)", "format": "in vivo, human", "set-up": "Starting Blood Pressure: unit not given here", "text": "Blood pressure data was acquired from a multi-week pilot open clinical weight loss trial with extremely obese patients which was undertaken to gauge the effects of a pouch delivery form of a potassium salt of (−)-hydroxycitrate under the normal circumstances faced in clinical practice with this patient population. Sixteen patients were enrolled, three of whom were diabetics on medications or insulin. Several others were suspected of suffering from insulin resistance. The patients ingested 3–4 grams of HCA per day in two divided doses. Aside from being informed that they must eat a carbohydrate-containing meal within one hour of taking the HCA and that they should avoid eating late in the day, they were not instructed to follow any special diet or exercise plan outside their normal habits and no caloric restriction was imposed. This particular form of potassium (−)-hydroxycitrate delivery typically was mixed into water or juice and consumed at mid-morning and mid-afternoon. The delivery was a water-soluble immediate release form. […] A number of patients continued on the program for 6 weeks. […] Several other patients experienced good appetite suppression, yet also complained of episodic tiredness at the beginning of the program, a sign of low blood sugar. Two patients subsequently were placed on phentermine. […] The average weight loss over the 3 week period for these 14 patients was approximately 3.1 pounds per person per week. The clinical decision was made that potassium (−)-hydroxycitrate in an immediate release format can exercise a strong hypoglycemic effect in diabetics and that it appears to influence blood sugar levels in protodiabetics, as well. At therapeutically effective dosages, HCA probably should be used with diabetic populations only under a physician's care.\nAlong with the hypoglycemic effect of the potassium hydroxycitrate, a quite surprising finding was that blood pressure levels in eight patients began to normalize rapidly with this treatment. Elevated blood pressure is common with obese and insulin-resistant patients, and therefore it was unremarkable that in this patient population (ages ranging roughly 30 to 60) that almost one half suffered from hypertension. Following are the readings for the eight hypertensive patients. Many of these patients had been advised to lower salt intake and to increase potassium and magnesium intake. […]"}, "[2]": {"test": "serum NEFA, insulin and corticosterone in rats on a moderate fat diet given potassium hydroxycitrate for 60 days", "format": "in vivo", "conditions": "student's T test", "text": "Therefore, animal tests were scrutinized to determine if variations in serum levels of non-esterified fatty acids (NEFA), insulin and corticosterone could explain the novel findings. Ten-week old male rats were placed on a moderate fat diet (30% of calories, which is a high-fat diet for rats) for 60 days. These rats were fed water or potassium hydroxycitrate (0.33 mmols/kg) twice daily by gastric intubation, but were otherwise provided with food and water ad libitum. Five animals were used as controls and two different formulas of potassium hydroxycitrate were provided to five animals each. The differences between control (5 data points) and active (10 data points) were then analyzed according to the student's T test. […] Both of these factors could play a role in the clinical findings of lowered blood pressure in hypertensive individuals. Elevated insulin levels are known to be associated with hypertension. Glucocorticoids, similarly, are associated with hypertension through a variety of mechanisms, including sodium retention."}, "[3]": {"conditions": "treated rats, diets mostly of glucose (e.g. 70% glucose); Sullivan and Triscari 1976; cited from earlier work"}},
  "note": "“And” between values parts separate entries of the source, which are not always exact repeats. Equal entries are not always repeated.",
  "data": [
    {"smiles": "O=C([O-])CC(O)(C(=O)[O-])C(O)C(=O)[O-].[K+].[K+].[K+]", "note": "(stereo not drawn) [potassium hydroxycitrate, potassium (−)-hydroxycitrate]", "values": [
      {"measurement": "hypotensive effect", "setting": "[1]; as little as 3 grams of HCA per day in divided doses (5 grams of the salt), manifests over one to several weeks", "result": "significant hypotensive effect"},
      {"measurement": "Starting Blood Pressure", "setting": "[1]; baseline reading of each of the eight hypertensive, extremely obese patients before treatment", "result": "150/88 and 178/100 and 130/98 and 150/98 and 140/78 and 180/88 and 120/80 and 170/100"},
      {"measurement": "weight loss of one patient", "setting": "[1]; one patient who followed the program for 10 weeks, 3–4 grams of HCA per day", "result": 32, "unit": "pounds"},
      {"measurement": "average weight loss", "setting": "[1]; over the 3 week period, 14 patients, 3–4 grams of HCA per day, no caloric restriction", "result": "approximately 3.1 pounds per person per week"},
      {"measurement": "tolerability", "setting": "[1]; pre-commercial pouch preparation, patients complained of inconvenience and poor taste", "result": "no other issues of tolerability"},
      {"measurement": "hypoglycemic reactions", "setting": "[1]; two of the diagnosed diabetics on medications or insulin, 3–4 grams of HCA per day, immediate release", "result": "severe hypoglycemic reactions"}
    ]},
    {"smiles": "O=C(O)CC(O)(C(=O)O)C(O)C(=O)O", "note": "(single isomer, unassigned; (-)) [HCA, (−)-Hydroxycitric acid]", "values": [
      {"measurement": "corticosterone levels, HCA groups versus control", "setting": "[2]; pooled active (10) vs control (5), one-tailed P 0.0013, two-tailed P 0.0026", "result": "very significantly lower"},
      {"measurement": "insulin levels, HCA groups versus control", "setting": "[2]; pooled active (10) vs control (5), one-tailed P 0.0306, two-tailed P 0.0612", "result": "significantly lower"},
      {"measurement": "NEFA, HCA groups versus control", "setting": "[2]; pooled active (10 data points) vs control (5)", "result": "no significant difference"},
      {"measurement": "plasma levels of glucose, insulin, or free fatty acids relative to controls", "setting": "[3]", "result": "no significant differences"}
    ]}
  ]
}
